pIC50: −log10 of the molar value.

In assay [1] the target is CK1δ (Homo sapiens, UniProt P48730). Nature of the assay: CK1δ kinase assay (Caliper LabChip electrophoretic separation of fluoresceinated peptide substrate and product). Type of assay: biochemical. Conditions: 200 pM CK1δ, 50 μM ATP, 1.5 μM peptide, 22 hours at room temperature; read-out: CK1δ IC50 range. Put shortly: (§1)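 Reactions ran 22 hours at room temperature and were stopped with EDTA. Phosphorylated product and unphosphorylated substrate were then separated electrophoretically. Compounds were tested at eleven concentrations, and IC50 values came from non-linear regression.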
Chain of CK1δ (P48730 whole entry): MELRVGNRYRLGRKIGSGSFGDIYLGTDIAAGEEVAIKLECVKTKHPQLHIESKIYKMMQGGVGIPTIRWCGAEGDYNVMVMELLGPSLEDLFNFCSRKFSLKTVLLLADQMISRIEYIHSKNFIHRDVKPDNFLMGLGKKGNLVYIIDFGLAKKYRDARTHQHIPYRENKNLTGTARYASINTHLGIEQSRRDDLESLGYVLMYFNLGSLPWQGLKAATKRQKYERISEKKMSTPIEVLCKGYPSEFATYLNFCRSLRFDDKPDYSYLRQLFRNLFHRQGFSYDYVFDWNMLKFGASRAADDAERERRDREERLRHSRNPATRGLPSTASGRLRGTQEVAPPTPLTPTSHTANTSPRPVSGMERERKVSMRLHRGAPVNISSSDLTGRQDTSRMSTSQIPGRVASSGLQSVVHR

For assay [2], the target named is CK1ε (Homo sapiens, UniProt P49674). As to the kind of experiment: CK1ε kinase assay (Caliper LabChip electrophoretic separation of fluoresceinated peptide substrate and product). Type of assay: biochemical. Conditions: 200 pM CK1ε, 50 μM ATP, 1.5 μM peptide, 22 hours at room temperature; read-out: CK1ε IC50 range. A digest of the protocol: as §1
Chain of CK1ε (P49674 whole entry): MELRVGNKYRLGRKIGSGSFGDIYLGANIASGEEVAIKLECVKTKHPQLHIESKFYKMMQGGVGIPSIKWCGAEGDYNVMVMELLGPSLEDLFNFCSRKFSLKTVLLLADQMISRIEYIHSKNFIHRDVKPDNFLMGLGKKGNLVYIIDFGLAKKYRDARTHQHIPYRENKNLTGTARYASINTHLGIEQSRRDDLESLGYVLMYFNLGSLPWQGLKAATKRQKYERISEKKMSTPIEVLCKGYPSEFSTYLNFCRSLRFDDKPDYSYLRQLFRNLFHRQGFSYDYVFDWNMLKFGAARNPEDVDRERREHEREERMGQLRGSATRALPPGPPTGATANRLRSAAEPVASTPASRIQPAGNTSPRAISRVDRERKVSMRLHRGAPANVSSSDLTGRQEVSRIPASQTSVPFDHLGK

Turning to `CC(C)(C)NC(=O)N1Cc2c(C(N)=O)c(-c3ccc(F)c(Cl)c3)nn2C(CCF)C1` (single isomer, unassigned) [Compound A103, N^5-(tert-Butyl)-2-(3-chloro-4-fluorophenyl)-7-(2-fluoroethyl)-6,7-dihydropyrazolo[1,5-a]pyrazine-3,5(4H)-dicarboxamide], the pIC50 in assay [1] and in assay [2] was 8.00 to 11.00 each time.

For the molecule `CC(C)(C)NC(=O)N1Cc2c(C(N)=O)c(-c3cccc(F)c3)nn2C(CF)C1` (single isomer, unassigned) [Compound A106, N^5-(tert-Butyl)-7-(fluoromethyl)-2-(3-fluorophenyl)-6,7-dihydropyrazolo[1,5-a]pyrazine-3,5(4H)-dicarboxamide], the pIC50 in assay [1] and in assay [2] was 5.70 to 7.00 each time.

For `CC(C)(C)NC(=O)N1Cc2c(C(N)=O)c(-c3cccc(F)c3)nn2C(CF)C1` (single isomer, unassigned) [Compound A107, N^5-(tert-Butyl)-7-(fluoromethyl)-2-(3-fluorophenyl)-6,7-dihydropyrazolo[1,5-a]pyrazine-3,5(4H)-dicarboxamide], the pIC50 in assay [1] and in assay [2] was 8.00 to 11.00 throughout.

As for `CC1CN(C(=O)NC(C)(C)C)Cc2c(C(N)=O)c(-c3cccc(F)c3)nn21` (single isomer, unassigned) [Compound A108, N^5-(tert-Butyl)-2-(3-fluorophenyl)-7-methyl-6,7-dihydropyrazolo[1,5-a]pyrazine-3,5(4H)-dicarboxamide], the pIC50 in assay [1] and in assay [2] was 7.00 to 8.00 in each case.

Take `CC1CN(C(=O)NC(C)(C)C)Cc2c(C(N)=O)c(-c3cccc(F)c3)nn21` (single isomer, unassigned) [Compound A109, N^5-(tert-Butyl)-2-(3-fluorophenyl)-7-methyl-6,7-dihydropyrazolo[1,5-a]pyrazine-3,5(4H)-dicarboxamide]: the pIC50 in assay [1] and in assay [2] was 8.00 to 11.00 each time.

For `CC1CN(C(=O)NC2CC(F)(F)C2)Cc2c(C(N)=O)c(-c3cccc(Cl)c3)nn21` (single isomer, unassigned) [Compound A110, 2-(3-Chlorophenyl)-N^5-(3,3-difluorocyclobutyl)-7-methyl-6,7-dihydropyrazolo[1,5-a]pyrazine-3,5(4H)-dicarboxamide], the pIC50 in assay [1] and in assay [2] was 8.00 to 11.00 throughout.

Turning to `CC1CN(C(=O)NC2CC(F)(F)C2)Cc2c(C(N)=O)c(-c3cccc(Cl)c3)nn21` (single isomer, unassigned) [Compound A111, 2-(3-Chlorophenyl)-N^5-(3,3-difluorocyclobutyl)-7-methyl-6,7-dihydropyrazolo[1,5-a]pyrazine-3,5(4H)-dicarboxamide], the pIC50 in assay [1] and in assay [2] was 8.00 to 11.00 throughout.

Take `NC(=O)c1c(-c2cccc(Cl)c2)nn2c1CN(C(=O)NC1CC(F)(F)C1)CC2CF` (single isomer, unassigned) [Compound A112, 2-(3-Chlorophenyl)-N^5-(3,3-difluorocyclobutyl)-7-(fluoromethyl)-6,7-dihydropyrazolo[1,5-a]pyrazine-3,5(4H)-dicarboxamide]: the pIC50 in assay [1] and in assay [2] was 8.00 to 11.00 throughout.

As to `NC(=O)c1c(-c2cccc(Cl)c2)nn2c1CN(C(=O)NC1CC(F)(F)C1)CC2CF` (single isomer, unassigned) [Compound A113, 2-(3-Chlorophenyl)-N^5-(3,3-difluorocyclobutyl)-7-(fluoromethyl)-6,7-dihydropyrazolo[1,5-a]pyrazine-3,5(4H)-dicarboxamide], the pIC50 in assay [1] and in assay [2] was 8.00 to 11.00 each time.

Take `CC(C)(C)NC(=O)N1Cc2c(C(N)=O)c(-c3ccc(F)c(Cl)c3)nn2C(C(C)(C)C)C1` (single isomer, unassigned) [Compound A117, N^5-7-Di-tert-butyl-2-(3-chloro-4-fluorophenyl)-6,7-dihydropyrazolo[1,5-a]pyrazine-3,5(4H)-dicarboxamide]: the pIC50 is 5.70 to 7.00 in assay [1] and 7.00 to 8.00 in assay [2].

A word on the pIC50: it is the negative decadic logarithm of the IC50, by convention in mol/L.
